Holding throughout (assay): growth of human tumour cells (NCI), 48 h
The test system of experiment [1] is OVCAR-5.
Experiment [2] relates to HCT-116.
The subject of experiment [3] is UO-31.
The test system of experiment [4] is OVCAR-3.
Experiment [5] deals with RPMI-8226.
In experiment [6] the test system is BT-549.
In experiment [7] the test system is IGROV-1.
For experiment [8], the system named is U-251.
The test system of experiment [9] is Malme-3M.
The subject of experiment [10] is NCI/ADR-RES.
The test system of experiment [11] is TK-10.
The subject of experiment [12] is CAKI-1.
Experiment [13] concerns PC-3.
Experiment [14] has as its system T47D.
The test system of experiment [15] is SK-OV-3.
The subject of experiment [16] is SK-MEL-5.
Experiment [17] deals with HCC 2998.
Experiment [18] has as its system HT-29.
Experiment [19] deals with SR.

Molecules are shown by their SMILES.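 Following 48 hours of exposure in 96-well plates, responses at five concentrations were used to interpolate endpoints linearly. GI50 is the concentration that inhibits growth by half.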 Active and inactive are the calls of the source. No stated cut-off is given here; in the data, active = GI50 up to about 1.1 µM and inactive = higher. A value given as a limit tells only on which side of the number the result lay.

Regarding `O=C1N[C@H](C(=O)O)[C@@H](c2ccc(OCc3ccccc3)cc2)O1`, the GI50 in experiment [1] was > 100 µM (inactive); in experiment [2] it was 31.7 µM (inactive); in [3], > 100 µM (inactive); in [4], 92.5 µM (inactive); in experiment [5] it was 11.6 µM (inactive); in [6], 32.1 µM (inactive). In addition, the GI50 in [7] was 20.9 µM (inactive); in [8] it was 27.9 µM (inactive); in experiment [9] it was > 100 µM (inactive); in experiment [10] it was 22.5 µM (inactive); in experiment [11] it was 27.4 µM (inactive); in experiment [12], 34.3 µM (inactive). Also, the GI50 was > 100 µM (inactive) in experiment [13]; 26.3 µM (inactive) in experiment [14]; 44.1 µM (inactive) in experiment [15]; > 100 µM (inactive) in experiment [16]; > 100 µM (inactive) in [17]; > 100 µM (inactive) in experiment [18].
`O=C1c2cc3c(cc2CC12Cc1cc4c(cc1C2=O)CCC4)CCCC3` (stereo unspecified): the GI50 in experiment [1], in experiment [2], in experiment [3], in [4], in experiment [5] and in [7] was > 100 µM (inactive) throughout. The GI50 in experiment [8] is 89.1 µM (inactive); in experiment [19], > 100 µM (inactive); in [9] it was 59.4 µM (inactive); in [10] it was > 100 µM (inactive); in experiment [11], > 100 µM (inactive); in experiment [12], > 100 µM (inactive). Also, the GI50 in experiment [13], in experiment [14], in [15], in experiment [16], in experiment [17] and in experiment [18] was > 100 µM (inactive) each time.
Regarding `Cc1ccc(NC(=O)c2cc(S(=O)(=O)Nc3n[nH]c(=O)[nH]3)c(SSc3cc(Cl)c(C(=O)Nc4ccc(C)cc4)cc3S(=O)(=O)Nc3n[nH]c(=O)[nH]3)cc2Cl)cc1`, the GI50 in experiment [1], in experiment [2], in experiment [3], in experiment [4], in experiment [5] and in experiment [6] was > 100 µM (inactive) in each case. Moreover, the GI50 in experiment [7], in experiment [8], in [19], in [9], in [10] and in [11] was > 100 µM (inactive) throughout. Besides, the GI50 in experiment [12], in experiment [13], in experiment [15], in experiment [16], in [17] and in experiment [18] was > 100 µM (inactive) throughout.
For `CC1(CCCO)CCCCCCCCCC(C)(CCCO)C1=O` (stereo unspecified), the GI50 in experiment [1] was > 100 µM (inactive); in experiment [2] it was 94 µM (inactive); in [3], > 100 µM (inactive); in experiment [4] it was > 100 µM (inactive); in [5], > 100 µM (inactive); in experiment [6] it was > 100 µM (inactive). In addition, the GI50 in experiment [7], in [8], in [9], in [10], in [12] and in [13] was > 100 µM (inactive) each time. Also, the GI50 in [14], in experiment [15], in experiment [16], in experiment [17] and in [18] was > 100 µM (inactive) in each case.
For the compound `Nc1ncnc2c1ccn2CC#CCO`, the GI50 in [1], in experiment [2], in [3], in experiment [4], in experiment [5] and in [6] was > 100 µM (inactive) throughout. Moreover, the GI50 in [7], in experiment [8], in experiment [9], in experiment [10], in experiment [11] and in experiment [12] was > 100 µM (inactive) in each case. Further, the GI50 in [13], in experiment [14], in experiment [15], in experiment [16], in experiment [17] and in experiment [18] was > 100 µM (inactive) each time.
On to `CCOP(=O)(OCC)/C(=C/c1cccs1)CC(C)=O`, for which the GI50 in [1], in experiment [2], in experiment [3], in [4], in experiment [6] and in [7] was > 100 µM (inactive) each time. For the same compound, the GI50 in experiment [8], in experiment [9], in experiment [10], in experiment [11], in [12] and in [13] was > 100 µM (inactive) each time. Also, the GI50 in experiment [14] is 73.8 µM (inactive); in [15], > 100 µM (inactive); in experiment [16] it was > 100 µM (inactive); in [17] it was > 100 µM (inactive); in experiment [18], > 100 µM (inactive).
As for `CSC1=C(C#N)C(=O)N(c2ccc(C)cc2)C(=S)C1C#N` (stereo unspecified), the GI50 in experiment [1], in experiment [2], in experiment [6], in experiment [7], in experiment [8] and in experiment [9] was > 100 µM (inactive) throughout. Further, the GI50 in experiment [10], in experiment [11], in experiment [12], in [13], in experiment [15] and in experiment [16] was > 100 µM (inactive) in each case. Besides, the GI50 in experiment [17] and in [18] was > 100 µM (inactive) throughout.
`Cc1cccc(/N=N/C(=O)NNc2cccc(C)c2C)c1C`: the GI50 is 37 µM (inactive) in experiment [1]; 29.4 µM (inactive) in experiment [2]; 30.8 µM (inactive) in experiment [3]; 45.4 µM (inactive) in experiment [4]; 29.4 µM (inactive) in experiment [5]; 23.3 µM (inactive) in [6]. Moreover, the GI50 in experiment [7] was 23.9 µM (inactive); in [8], 35.8 µM (inactive); in experiment [19] it was 33.2 µM (inactive); in experiment [9] it was 21.7 µM (inactive); in [11], 37.7 µM (inactive); in experiment [12] it was 39 µM (inactive). The GI50 was 31.5 µM (inactive) in experiment [13]; 27.2 µM (inactive) in experiment [14]; 28.6 µM (inactive) in [16]; 15 µM (inactive) in experiment [17]; 56.9 µM (inactive) in experiment [18].
On to `CN(C(=S)Cc1ccc(Cl)c(Cl)c1)C1CCCC[C@@H]1N1CCCC1` (stereo partly specified), for which the GI50 in experiment [1] is 59.8 µM (inactive); in [2] it was 48.1 µM (inactive); in [3], 19.6 µM (inactive); in experiment [4], 26.1 µM (inactive); in experiment [5], 31.8 µM (inactive); in experiment [6], 72.1 µM (inactive). Besides, the GI50 in experiment [7] was < 0.01 µM (active); in [8], 29.9 µM (inactive); in [10], 85.9 µM (inactive); in [11], 27.9 µM (inactive); in experiment [12] it was 44.6 µM (inactive); in experiment [13] it was 31.4 µM (inactive). Further, the GI50 in experiment [14] was 38 µM (inactive); in [15] it was 58.7 µM (inactive); in experiment [16], 18.5 µM (inactive); in [18], 16.7 µM (inactive).
On to `C/C(=N\c1ccc(Cl)cc1)c1ccncc1`, for which the GI50 was > 100 µM (inactive) in experiment [1]; > 100 µM (inactive) in experiment [2]; 4.04 µM (inactive) in experiment [3]; 41 µM (inactive) in experiment [4]; 7.08 µM (inactive) in experiment [5]; > 100 µM (inactive) in experiment [6]. The GI50 in experiment [8] is > 100 µM (inactive); in experiment [9] it was > 100 µM (inactive); in [10], > 100 µM (inactive); in [12], > 100 µM (inactive); in [13] it was > 100 µM (inactive); in experiment [14] it was 0.809 µM (active). Besides, the GI50 is 2.13 µM (inactive) in experiment [16], > 100 µM (inactive) in experiment [17] and > 100 µM (inactive) in experiment [18].
As for `O=c1c(C(c2ccc(-c3ccccc3)cc2)c2c(O)oc3ccccc3c2=O)c(O)oc2ccccc12`, the GI50 is 23.2 µM (inactive) in [2]; 17.7 µM (inactive) in [3]; 24.3 µM (inactive) in experiment [4]; 25.9 µM (inactive) in [5]; 19.2 µM (inactive) in [6]; 34.8 µM (inactive) in experiment [7]. In addition, the GI50 in [8] was 44.8 µM (inactive); in experiment [9], 24.7 µM (inactive); in [10] it was 21.6 µM (inactive); in [11], 51.9 µM (inactive); in experiment [12] it was 19.9 µM (inactive); in experiment [13], 24.2 µM (inactive). In addition, the GI50 is 40 µM (inactive) in experiment [14], 28.7 µM (inactive) in experiment [16], 15.6 µM (inactive) in [17] and 20.3 µM (inactive) in experiment [18].
In the case of `CCOC(=O)c1cn2c(ccc3sc4ccccc4c(=O)c32)n1`, the GI50 in experiment [1], in [2], in [3], in experiment [4], in experiment [5] and in [6] was > 100 µM (inactive) in each case. For the same compound, the GI50 in [7], in experiment [8], in experiment [19], in [9], in experiment [10] and in experiment [11] was > 100 µM (inactive) in each case. In addition, the GI50 in [12], in experiment [13], in experiment [16], in [17] and in [18] was > 100 µM (inactive) in each case.

The values are drawn from ChEMBL document CHEMBL1201862, “PubChem BioAssay data set” (2004).
